Reference: patent publication US12215085B2 (priority 2019, dated 2025)

Experiments:
[1] = system: rats with beta-amyloid induced senile dementia; assay: Brain pathological examination, beta-amyloid induced senile dementia rats; assay type: in vivo, rat
Wistar rats = assay: Long-term toxicity, 27 weeks, Wistar rats
Excerpt: 120 Wistar rats were used, 30 rats per group, wherein half of them were males and half were females. The administration route was ig administration, once per day, 6-day administration per week, and a 27-week test period.

normal anesthetized dogs = assay: General pharmacological indexes of normal anesthetized dog; assay type: in vivo; conditions: 0.8, 1.6 and 3.2 mg/kg
Excerpt: Meanwhile, the influence of Crystal Form A of octahydroaminoacridine succinate on the general pharmacological indexes of the normal anesthetized dog was observed.

[2] = Dynamic moisture sorption (DVS) hygroscopicity; assay type: physicochemical; conditions: 25° C.; begins to significantly absorb water at 90% relative humidity
Method: In order to evaluate the stability of Crystal Form A under different humidity conditions, a dynamic moisture sorption (DVS) test was carried out on the sample of Crystal Form A under the constant temperature condition of 25° C.

mouse = assay: Acute toxicity LD50, mouse; conditions: clinical daily dosage 8 mg/60 kg human/day, per kilogram body weight
[3] = Acute toxicity LD50, mouse; conditions: in vivo, po
[4] = system: rats with common carotid artery occlusion-induced vascular dementia; assay: Brain pathological examination, common carotid artery occlusion-induced vascular dementia rats; assay type: in vivo, rat; conditions: 1.4 mg/kg and 2.8 mg/kg
mice = assay: General pharmacological study in mice; assay type: in vivo
[5] = 24 hours equilibrium solubility in water; assay type: physicochemical; conditions: thermodynamic from solid, room temperature, initial concentration about 100 mg/mL, read-out: 24 hours equilibrium solubility in H2O
Method: Step: 24 hours equilibrium solubility of the sample of Crystal Form A in water was tested at room temperature. In the experiment, after mixing the sample of crystal form with water to form a suspension (initial concentration was about 100 mg/mL), the stirring was carried out for 24 hours (1000 rpm) at room temperature, a supernatant obtained from the centrifugation was filtered and the solubility was measured, and the residual solid was subjected to the XRPD test.

[6] = Physical and chemical stability (XRPD, HPLC); assay type: physicochemical
Method: • (1) The physical and chemical stability evaluations were performed after Crystal Form A was placed in a closed condition at 80° C. for 24 hours. • (2) The physical and chemical stability evaluations were performed after Crystal Form A was placed in an open condition at 25° C./60% relative humidity and 40° C./75% relative humidity respectively for one week.
The physical and chemical stabilities of the samples were tested by XRPD and HPLC.

Structure (SMILES): Nc1c2c(nc3c1CCCC3)CCCC2.O=C(O)CCC(=O)O [Crystal Form A, 9-amino-1,2,3,4,5,6,7,8-octahydroacridine succinate]
- pathological damage of cerebral cortex and hippocampus caused by beta-amyloid ([1]; high-dose group (2.8 mg/kg)): could relieve the pathological damage
- pathological changes of cortex and hippocampus compared with the model group ([1]; low and medium-dose groups (0.7 and 1.4 mg/kg)): no obvious difference
- toxic target organ for long-term administration (Wistar rats; 27 weeks intragastric): could be the liver, but reversible
- animals died (Wistar rats; high-dose group 30 mg/kg, 27 weeks): 5 animals
- non-toxic reaction dose (Wistar rats; intragastric, 27 weeks): 15 mg/kg
- body weight of male and female rats vs control group (Wistar rats; rat, in vivo): obviously reduced
- electrocardiogram PR interval, QRS interval, QT interval, T wave, heart rate vs control group (Wistar rats; rat, in vivo): no significant difference
- general and microscopic examination of all organs (Wistar rats; rat, in vivo): No obvious pathological changes caused by the drug toxicity
- general state, behavioral activity, mental state, fur, urine and feces, food (water) intake (Wistar rats; rat, in vivo): all normal
- hematology, blood biochemistry examination and each organ coefficient vs control group (Wistar rats; rat, in vivo): no obvious difference
- rats with obvious elevation of the liver function index ALT (Wistar rats; rat, in vivo): 2 rats
- respiratory frequency, respiratory amplitude, arterial blood pressure, heart rate and electrocardiogram (normal anesthetized dogs): no obvious influence
- DVS weight gain [2]: up to 5.2%
- LD50 as multiple of the clinical daily dosage (mouse): ~499.5 times
- LD50 [3]: 66.6 ± 3.3 mg/kg
- pathological change of the common carotid artery occlusion-induced vascular dementia [4]: could relieve the pathological change
- general state, autonomous activity and coordinated movement of the mice (mice; 4, 8, 16 mg/kg once intragastric): no significant influence
- sleep number of animals with subthreshold dose of pentobarbital sodium (mice; 4, 8 and 16 mg/kg once intragastric): no obvious influence
- solubility thermodynamic at 24 h [5]: 72.9 mg/mL
- crystal form after storage (XRPD) ([6]; 80° C. closed 24 hours, 25° C./60% relative humidity and 40° C./75% relative humidity open one week): unchanged
- chemical purity after storage (HPLC) ([6]; all three test conditions: 80° C. closed 24 hours, 25° C./60% RH and 40° C./75% RH open one week): unchanged
